Data taken from ChEMBL document CHEMBL5465560, “Selectivity Literature for EUbOPEN Chemogenomic Library” (2024).

Columns and labels:
[1] = tested on: Epidermal growth factor receptor (Homo sapiens), P00533 [UNDEFINED MUTATION]; experiment: Selectivity interaction (KinomeScan (DiscoverX)) EUB0000655a EGFR; details: at 10 µM
[2] = target: T1, Mitogen-activated protein kinase kinase kinase 13 (Homo sapiens) (UniProt O43283); experiment: Selectivity interaction (KinomeScan (DiscoverX)) EUB0000655a MAP3K13; details: at 10 µM
T1 sequence (whole entry): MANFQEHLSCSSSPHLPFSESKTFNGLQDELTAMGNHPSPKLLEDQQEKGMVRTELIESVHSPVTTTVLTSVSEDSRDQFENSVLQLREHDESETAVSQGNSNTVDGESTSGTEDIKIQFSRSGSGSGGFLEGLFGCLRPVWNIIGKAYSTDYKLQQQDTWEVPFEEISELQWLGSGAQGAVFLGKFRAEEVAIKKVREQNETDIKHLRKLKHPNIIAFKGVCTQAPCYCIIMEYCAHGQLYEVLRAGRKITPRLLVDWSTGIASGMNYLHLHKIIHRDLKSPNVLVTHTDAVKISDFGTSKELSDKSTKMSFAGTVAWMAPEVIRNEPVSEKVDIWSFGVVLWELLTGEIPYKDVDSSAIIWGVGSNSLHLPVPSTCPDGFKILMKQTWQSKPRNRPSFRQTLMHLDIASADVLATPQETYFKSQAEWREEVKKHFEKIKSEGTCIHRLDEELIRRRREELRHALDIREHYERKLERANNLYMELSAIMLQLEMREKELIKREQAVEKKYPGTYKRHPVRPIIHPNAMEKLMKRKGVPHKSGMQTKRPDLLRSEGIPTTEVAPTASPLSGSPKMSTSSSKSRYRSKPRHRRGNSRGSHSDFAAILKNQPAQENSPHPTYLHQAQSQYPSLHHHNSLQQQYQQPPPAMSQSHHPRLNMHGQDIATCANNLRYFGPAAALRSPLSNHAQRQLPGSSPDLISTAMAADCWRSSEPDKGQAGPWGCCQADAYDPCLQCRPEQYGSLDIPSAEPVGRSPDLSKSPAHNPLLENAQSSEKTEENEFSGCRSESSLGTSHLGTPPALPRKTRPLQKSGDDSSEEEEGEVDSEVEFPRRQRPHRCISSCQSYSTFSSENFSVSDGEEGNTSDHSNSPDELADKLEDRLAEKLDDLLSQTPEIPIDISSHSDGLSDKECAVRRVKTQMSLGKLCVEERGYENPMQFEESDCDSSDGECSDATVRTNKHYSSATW

[3] = target: RAC-alpha serine/threonine-protein kinase (Homo sapiens, UniProt P31749); experiment: Selectivity interaction (ProQinase) EUB0000171b AKT1
Sequence of RAC-alpha serine/threonine-protein kinase (P31749 whole entry, canonical isoform): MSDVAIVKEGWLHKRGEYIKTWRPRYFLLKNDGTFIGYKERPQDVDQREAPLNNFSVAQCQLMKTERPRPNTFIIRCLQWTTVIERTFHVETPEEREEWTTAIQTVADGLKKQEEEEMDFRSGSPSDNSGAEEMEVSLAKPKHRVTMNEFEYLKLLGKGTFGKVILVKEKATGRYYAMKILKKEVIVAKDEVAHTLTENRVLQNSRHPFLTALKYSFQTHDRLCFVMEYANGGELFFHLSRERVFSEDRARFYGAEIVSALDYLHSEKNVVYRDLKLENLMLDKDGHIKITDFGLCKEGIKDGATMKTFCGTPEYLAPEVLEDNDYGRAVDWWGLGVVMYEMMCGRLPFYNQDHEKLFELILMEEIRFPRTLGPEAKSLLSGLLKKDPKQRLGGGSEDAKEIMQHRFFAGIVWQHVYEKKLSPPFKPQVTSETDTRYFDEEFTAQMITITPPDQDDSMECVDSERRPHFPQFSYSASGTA

[4] = target: Casein kinase I isoform gamma-1 (Homo sapiens) (UniProt Q9HCP0); experiment: Selectivity interaction (Kinase panel (KiNativ target engagement assay in Jurkat cells)) EUB0001635a CSNK1G1; format: cell-based; details: at 1 µM
Sequence of Casein kinase I isoform gamma-1 (Homo sapiens) (Q9HCP0 whole entry, looked up, canonical isoform): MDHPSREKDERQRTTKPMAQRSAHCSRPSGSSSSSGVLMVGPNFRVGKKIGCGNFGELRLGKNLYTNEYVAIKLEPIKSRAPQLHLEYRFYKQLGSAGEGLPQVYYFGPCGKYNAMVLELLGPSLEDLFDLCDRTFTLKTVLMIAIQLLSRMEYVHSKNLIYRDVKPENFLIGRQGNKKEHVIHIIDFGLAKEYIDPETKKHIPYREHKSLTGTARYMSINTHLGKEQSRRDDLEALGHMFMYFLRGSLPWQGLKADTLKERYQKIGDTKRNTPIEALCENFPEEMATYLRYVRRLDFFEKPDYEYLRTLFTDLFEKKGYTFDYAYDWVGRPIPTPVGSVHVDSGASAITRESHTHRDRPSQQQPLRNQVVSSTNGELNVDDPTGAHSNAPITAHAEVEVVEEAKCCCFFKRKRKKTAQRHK

[5] = target: Calcium/calmodulin-dependent protein kinase type II subunit alpha (Homo sapiens, UniProt Q9UQM7); experiment: Selectivity interaction (KinomeScan (DiscoverX)) EUB0000666a CAMK2A; details: at 10 µM
[6] = target: T2, Ephrin type-A receptor 8 (Homo sapiens) (UniProt P29322); details: at 10 µM
T2 sequence (whole entry): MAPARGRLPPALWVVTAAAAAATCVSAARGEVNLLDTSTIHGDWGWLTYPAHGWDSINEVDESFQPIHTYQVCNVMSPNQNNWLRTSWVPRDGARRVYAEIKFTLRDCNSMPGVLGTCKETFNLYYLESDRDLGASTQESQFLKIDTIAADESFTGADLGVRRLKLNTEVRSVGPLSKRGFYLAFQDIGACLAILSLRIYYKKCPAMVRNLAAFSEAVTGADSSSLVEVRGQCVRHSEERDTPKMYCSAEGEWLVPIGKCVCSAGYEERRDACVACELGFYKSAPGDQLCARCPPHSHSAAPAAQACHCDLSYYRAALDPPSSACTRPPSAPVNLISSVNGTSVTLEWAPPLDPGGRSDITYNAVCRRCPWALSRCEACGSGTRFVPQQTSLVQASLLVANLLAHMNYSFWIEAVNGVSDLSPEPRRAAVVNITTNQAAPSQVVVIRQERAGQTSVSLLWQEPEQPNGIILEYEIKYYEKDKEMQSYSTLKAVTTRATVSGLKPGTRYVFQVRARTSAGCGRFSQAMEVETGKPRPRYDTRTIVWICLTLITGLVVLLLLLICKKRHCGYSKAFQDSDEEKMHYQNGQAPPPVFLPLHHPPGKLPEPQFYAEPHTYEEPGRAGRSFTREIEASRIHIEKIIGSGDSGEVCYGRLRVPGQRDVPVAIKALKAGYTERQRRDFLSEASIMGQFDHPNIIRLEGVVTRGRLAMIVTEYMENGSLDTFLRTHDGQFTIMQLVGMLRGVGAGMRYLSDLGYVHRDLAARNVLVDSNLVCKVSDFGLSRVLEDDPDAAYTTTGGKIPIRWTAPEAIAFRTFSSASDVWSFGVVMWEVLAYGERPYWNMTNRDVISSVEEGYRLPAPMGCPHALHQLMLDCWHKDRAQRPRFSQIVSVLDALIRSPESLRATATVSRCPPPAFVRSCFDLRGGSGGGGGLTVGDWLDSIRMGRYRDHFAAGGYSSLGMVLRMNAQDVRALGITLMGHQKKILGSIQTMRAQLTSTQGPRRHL

[7] = target: Tyrosine-protein kinase Fer (Homo sapiens) (UniProt P16591); experiment: Selectivity interaction (ActivX KiNativ screen (kinase selectivity in THP-1 cell lysates)) EUB0000639a FER; format: subcellular; details: lysate, at 0.04 µM
Sequence of Tyrosine-protein kinase Fer (Homo sapiens) (P16591 whole entry, looked up): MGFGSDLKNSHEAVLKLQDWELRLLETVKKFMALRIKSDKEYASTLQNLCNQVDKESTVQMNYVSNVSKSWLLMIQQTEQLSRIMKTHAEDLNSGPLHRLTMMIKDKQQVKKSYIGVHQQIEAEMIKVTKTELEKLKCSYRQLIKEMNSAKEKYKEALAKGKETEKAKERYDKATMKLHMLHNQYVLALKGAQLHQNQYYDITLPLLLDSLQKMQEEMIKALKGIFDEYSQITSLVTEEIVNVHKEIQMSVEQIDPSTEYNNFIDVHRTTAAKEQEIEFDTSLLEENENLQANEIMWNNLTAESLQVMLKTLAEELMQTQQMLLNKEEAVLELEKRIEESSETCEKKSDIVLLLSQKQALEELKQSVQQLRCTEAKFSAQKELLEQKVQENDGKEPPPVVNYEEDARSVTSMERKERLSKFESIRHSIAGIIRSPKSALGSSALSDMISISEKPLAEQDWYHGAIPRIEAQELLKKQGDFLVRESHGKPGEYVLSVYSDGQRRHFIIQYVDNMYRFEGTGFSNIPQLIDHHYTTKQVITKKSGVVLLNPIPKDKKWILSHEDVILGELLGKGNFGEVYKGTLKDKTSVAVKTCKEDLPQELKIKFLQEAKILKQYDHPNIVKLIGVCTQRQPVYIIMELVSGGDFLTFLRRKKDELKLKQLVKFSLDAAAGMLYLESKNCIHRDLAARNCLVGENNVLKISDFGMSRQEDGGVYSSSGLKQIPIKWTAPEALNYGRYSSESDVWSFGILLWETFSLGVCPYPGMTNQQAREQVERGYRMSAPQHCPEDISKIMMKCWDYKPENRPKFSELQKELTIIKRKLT

[8] = target: T3, Serine/threonine-protein kinase Sgk1 (Homo sapiens) (UniProt O00141); experiment: Selectivity interaction (KinomeScan (DiscoverX)) EUB0001049a SGK1; details: at 1 µM
T3 sequence (whole entry): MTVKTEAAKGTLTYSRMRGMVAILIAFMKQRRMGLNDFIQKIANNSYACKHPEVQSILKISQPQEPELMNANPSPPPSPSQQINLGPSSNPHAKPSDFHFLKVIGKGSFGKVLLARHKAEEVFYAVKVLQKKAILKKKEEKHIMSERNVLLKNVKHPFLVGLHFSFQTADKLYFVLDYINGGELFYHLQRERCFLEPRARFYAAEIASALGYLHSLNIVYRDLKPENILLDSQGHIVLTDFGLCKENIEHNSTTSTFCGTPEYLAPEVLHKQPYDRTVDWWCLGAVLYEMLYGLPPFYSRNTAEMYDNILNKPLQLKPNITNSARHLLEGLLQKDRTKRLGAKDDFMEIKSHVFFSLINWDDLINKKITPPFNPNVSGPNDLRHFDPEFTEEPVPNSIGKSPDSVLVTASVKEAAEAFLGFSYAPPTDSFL

[9] = target: Serine/threonine-protein kinase OSR1 (Homo sapiens) (UniProt O95747); experiment: Selectivity interaction (KinomeScan (DiscoverX)) EUB0000695a OXSR1; details: at 100 nM
Sequence of Serine/threonine-protein kinase OSR1 (Homo sapiens) (O95747 2-527 limits assumed): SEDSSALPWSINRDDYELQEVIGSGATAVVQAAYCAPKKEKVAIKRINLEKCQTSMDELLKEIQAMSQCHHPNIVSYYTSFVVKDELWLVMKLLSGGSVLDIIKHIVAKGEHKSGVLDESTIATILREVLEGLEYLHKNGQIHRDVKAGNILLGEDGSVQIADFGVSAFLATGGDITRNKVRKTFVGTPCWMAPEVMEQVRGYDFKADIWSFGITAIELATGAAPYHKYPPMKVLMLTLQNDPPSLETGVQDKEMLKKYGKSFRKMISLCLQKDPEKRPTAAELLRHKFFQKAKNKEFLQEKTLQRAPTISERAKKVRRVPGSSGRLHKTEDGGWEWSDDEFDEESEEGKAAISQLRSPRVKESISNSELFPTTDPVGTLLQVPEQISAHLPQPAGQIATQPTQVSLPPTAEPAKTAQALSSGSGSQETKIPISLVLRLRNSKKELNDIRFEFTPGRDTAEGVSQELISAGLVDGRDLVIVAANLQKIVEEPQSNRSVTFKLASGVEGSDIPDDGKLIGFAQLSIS

[10] = target: Receptor tyrosine-protein kinase erbB-3 (Homo sapiens) (UniProt P21860); experiment: Selectivity interaction (KinomeScan (DiscoverX)) EUB0001619a ERBB3; details: at 1 µM
Sequence of Receptor tyrosine-protein kinase erbB-3 (Homo sapiens) (P21860 whole entry): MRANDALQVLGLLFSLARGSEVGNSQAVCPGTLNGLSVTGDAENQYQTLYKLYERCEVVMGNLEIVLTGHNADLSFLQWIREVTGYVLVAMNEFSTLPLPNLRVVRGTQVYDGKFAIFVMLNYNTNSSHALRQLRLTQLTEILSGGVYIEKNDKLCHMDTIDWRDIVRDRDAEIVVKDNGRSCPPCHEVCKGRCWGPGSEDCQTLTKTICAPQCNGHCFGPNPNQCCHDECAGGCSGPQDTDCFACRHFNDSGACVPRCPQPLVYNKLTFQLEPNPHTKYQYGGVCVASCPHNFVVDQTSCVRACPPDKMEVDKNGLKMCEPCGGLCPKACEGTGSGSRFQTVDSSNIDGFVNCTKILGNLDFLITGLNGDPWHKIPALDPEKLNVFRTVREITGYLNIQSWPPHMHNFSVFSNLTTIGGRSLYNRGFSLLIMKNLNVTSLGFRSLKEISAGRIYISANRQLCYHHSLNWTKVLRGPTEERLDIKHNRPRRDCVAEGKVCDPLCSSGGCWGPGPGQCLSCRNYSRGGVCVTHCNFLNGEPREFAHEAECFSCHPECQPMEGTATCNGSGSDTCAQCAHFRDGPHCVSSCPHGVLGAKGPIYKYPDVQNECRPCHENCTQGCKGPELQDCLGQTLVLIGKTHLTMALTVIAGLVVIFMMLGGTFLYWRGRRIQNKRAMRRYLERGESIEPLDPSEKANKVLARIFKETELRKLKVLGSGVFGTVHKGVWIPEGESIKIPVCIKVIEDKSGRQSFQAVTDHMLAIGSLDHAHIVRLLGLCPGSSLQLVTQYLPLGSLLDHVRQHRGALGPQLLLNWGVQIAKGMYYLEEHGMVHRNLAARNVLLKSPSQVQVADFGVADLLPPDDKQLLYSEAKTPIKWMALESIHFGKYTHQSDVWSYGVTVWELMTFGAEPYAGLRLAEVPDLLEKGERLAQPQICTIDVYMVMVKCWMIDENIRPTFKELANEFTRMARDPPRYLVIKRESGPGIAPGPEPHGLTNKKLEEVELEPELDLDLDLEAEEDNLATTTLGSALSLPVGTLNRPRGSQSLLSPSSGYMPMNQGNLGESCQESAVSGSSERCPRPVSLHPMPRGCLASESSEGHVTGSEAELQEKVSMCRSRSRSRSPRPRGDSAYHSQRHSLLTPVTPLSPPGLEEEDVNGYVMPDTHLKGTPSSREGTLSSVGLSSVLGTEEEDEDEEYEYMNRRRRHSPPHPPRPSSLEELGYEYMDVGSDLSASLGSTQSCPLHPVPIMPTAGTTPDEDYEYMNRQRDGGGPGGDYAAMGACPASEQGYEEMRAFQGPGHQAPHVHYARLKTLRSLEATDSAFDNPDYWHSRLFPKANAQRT

Sequence of Epidermal growth factor receptor (Homo sapiens), P00533 [UNDEFINED MUTATION] (P00533 whole entry, looked up, change not shown): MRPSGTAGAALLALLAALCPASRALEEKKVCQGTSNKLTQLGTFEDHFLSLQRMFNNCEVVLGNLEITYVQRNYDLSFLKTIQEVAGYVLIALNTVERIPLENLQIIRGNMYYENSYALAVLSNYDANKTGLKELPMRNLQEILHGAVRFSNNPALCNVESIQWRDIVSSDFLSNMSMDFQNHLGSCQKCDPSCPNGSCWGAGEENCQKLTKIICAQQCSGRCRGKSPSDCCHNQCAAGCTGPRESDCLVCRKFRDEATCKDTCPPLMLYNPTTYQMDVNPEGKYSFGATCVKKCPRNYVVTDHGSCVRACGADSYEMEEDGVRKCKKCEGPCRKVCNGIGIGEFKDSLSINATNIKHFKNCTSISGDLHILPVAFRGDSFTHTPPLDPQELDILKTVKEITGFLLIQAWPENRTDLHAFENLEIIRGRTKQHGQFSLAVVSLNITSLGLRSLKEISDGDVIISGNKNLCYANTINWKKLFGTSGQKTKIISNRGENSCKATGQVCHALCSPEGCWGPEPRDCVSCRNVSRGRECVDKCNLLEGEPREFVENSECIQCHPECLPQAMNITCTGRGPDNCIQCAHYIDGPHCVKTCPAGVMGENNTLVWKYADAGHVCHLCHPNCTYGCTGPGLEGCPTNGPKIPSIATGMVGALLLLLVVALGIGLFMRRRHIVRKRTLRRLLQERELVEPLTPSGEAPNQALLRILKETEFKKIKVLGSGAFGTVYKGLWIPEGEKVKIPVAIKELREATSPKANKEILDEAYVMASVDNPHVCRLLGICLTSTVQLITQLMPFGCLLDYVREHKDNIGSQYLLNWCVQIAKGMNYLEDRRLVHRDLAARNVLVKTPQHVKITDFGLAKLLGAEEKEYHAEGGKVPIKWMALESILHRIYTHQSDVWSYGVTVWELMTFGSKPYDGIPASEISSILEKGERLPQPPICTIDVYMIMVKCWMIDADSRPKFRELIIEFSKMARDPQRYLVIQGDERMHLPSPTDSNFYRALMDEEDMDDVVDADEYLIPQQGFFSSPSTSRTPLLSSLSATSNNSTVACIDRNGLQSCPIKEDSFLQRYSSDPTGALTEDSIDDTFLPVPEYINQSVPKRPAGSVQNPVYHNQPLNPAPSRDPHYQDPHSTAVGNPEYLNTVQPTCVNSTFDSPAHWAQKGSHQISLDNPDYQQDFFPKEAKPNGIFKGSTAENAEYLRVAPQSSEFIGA

Work on CN(C)CCOc1ccc(-c2nc(-c3ccncc3)c(-c3ccc4c(c3)CC/C4=N\O)[nH]2)cc1 yielded a % of control [1] of 81% and a % of control [2] of 100%.

Compound C=CC(=O)Nc1cccc(C(=O)Nc2ccc(Nc3cc(-c4[nH]c(SC)nc4C)ccn3)cc2)c1 has a % of control ([3]; at 1 µM) of 84% and a % of control ([3]; at 5 µM) of 69%.

With C=CC(=O)Nc1ccc(C(=O)Nc2[nH]nc3c2CN(C(=O)N[C@H](CN(C)C)c2ccccc2)C3(C)C)cc1 the % of engagement [4] was -7.7%.

Compound O=C(NOC[C@H](O)CO)c1ccc(F)c(F)c1Nc1ccc(I)cc1F has a % of control [5] of 100%.

With Cc1cc([C@@H](C)Nc2ccccc2C(=O)O)c2nc(N3CCOCC3)cc(=O)n2c1 [AZD-6482] the % of control [6] was 96%.

CC[C@@H]1[C@H](F)C(=O)N[C@@H]1COc1nccc2cc(C(N)=O)c(OC)cc12 [ZIMLOVISERTIB] was tested, and the % of inhibition [7] was -11.5%.

Compound COc1cc(Nc2nc(C)cc(-c3cnn4nc(OC)ccc34)n2)cc(C(F)(F)F)c1 has a % of control [8] of 94%.

Compound Cc1cc(F)c(C(=O)Nc2cccc(-c3nncn3C(C)C)n2)cc1-n1cnc(C2CC2)c1 has a % of control [9] of 86%.

N#Cc1cccc(-c2c[nH]c3ncnc(N4CCOCC4)c23)c1 was tested, and the % of control [10] was 51%.
